Results taken from article PMC9926234, “Iterative computational design and crystallographic screening identifies potent inhibitors targeting the Nsp3 macrodomain of SARS-CoV-2” (Proceedings of the National Academy of Sciences of the …, 2023).
Like-named read-outs stand apart in the source and are kept apart here.

Experiments:
Type in all cases: binding
SARS-CoV-2 NSP3 Mac1 [1] = biological target: T1, SARS-CoV-2 NSP3 Mac1 (Severe acute respiratory syndrome coronavirus 2, UniProt P0DTD1); assay: biochemical; settings: for IC50: read-out: IC50; for Ki: Ki estimation from HTRF-derived IC50, Cheng-Prusoff, peptide 400nM, Kd 2.68µM, read-out: Ki***
SARS-CoV-2 NSP3 Mac1 [2] = biological target: T1, SARS-CoV-2 NSP3 Mac1; settings: for Refined occupancy: ligand occupancy after refinement (phenix.refine)
SARS-CoV-2 NSP3 Mac1 [3] = biological target: T1, SARS-CoV-2 NSP3 Mac1; parameters: contains a conserved macrodomain enzyme (Mac1); settings: for Spearman est (compound concentration vs apparent Tm): DSF dose responsiveness, 1 µM nsp3 mac1, adj p given
Outline: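 ΔTma values are thermal shifts relative to a co-located DMSO-only control, read with 5 µM Fluorescent Yellow dye. Each compound was tested in triplicate over seven concentrations (two-fold steps, top 1,000 or 100 μM). Spearman correlation of concentration versus ΔTma tested whether the shift was dose-responsive.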

[4] = HTRF ADPr-peptide displacement from SARS-CoV-2 Mac1
[5] = PanDDA 1-BDC of the event, compound stock 100 mM, Echo dispense volume 40 nl
[6] = PanDDA event map, 1 minus background density correction, crystal soaking of Mac1
[7] = crystal soak, compound stock 100 mM, Echo dispense volume 40 nl
[8] = ligand modeled in structure, compound stock 100 mM, Echo dispense volume 40 nl
[9] = true hit = binding in crystallographic soaking or the HTRF-based binding assay
[10] = PanDDA event map, 1-BDC of the hit dataset, crystal soak, compound concentration 100 mM
[11] = maximal thermal upshift vs DMSO control
[12] = overall hit flag: binding in crystallographic soaking or the HTRF-based binding assay

Work on `O=C(O)C[C@@H]1CN(c2ncnc3[nH]c4cc(F)ccc4c23)C[C@H](CO)O1` [LL114_0001] yielded an IC50 (SARS-CoV-2 NSP3 Mac1 [1]; [4]) of 8 µM, an IC50 (SARS-CoV-2 NSP3 Mac1 [1]; HTRF) of 8.2 µM and a Ki (SARS-CoV-2 NSP3 Mac1 [1]) of 7.1 µM. For the same compound, the 1-BDC (SARS-CoV-2 NSP3 Mac1 [2]; [5]) was 0.12, the 1-BDC (SARS-CoV-2 NSP3 Mac1 [2]; PanDDA event map 1-BDC, crystal soak, Compound_concentration 100 mM, PanDDA run dmso_34 or nohits_35 per dataset) was 0.14 and the “1-BDC (PanDDA)” value (SARS-CoV-2 NSP3 Mac1 [2]; [6]) was 0.12. The “PanDDA hit?” value (SARS-CoV-2 NSP3 Mac1 [2]; crystal soak, Compound_concentration 100 mM, Echo dispense 40 nl, PanDDA run dmso_34 or nohits_35 per dataset) was “TRUE”, the “PanDDA hit?” value (SARS-CoV-2 NSP3 Mac1 [2]; [7]) was “TRUE” and the “Modeled?” value (SARS-CoV-2 NSP3 Mac1 [2]; [8]) was “TRUE”. For the same compound, the Refined occupancy (SARS-CoV-2 NSP3 Mac1 [2]; crystal soaking of Mac1) was 24 and the “HIT*” value (SARS-CoV-2 NSP3 Mac1 [2]; [9]) was “Y”.
In the case of `O=C(O)CC1CN(c2ncnc3[nH]c4cc(Br)ccc4c23)CCO1` (stereo not drawn) [LL114_0014], the IC50 (SARS-CoV-2 NSP3 Mac1 [1]; HTRF) is reported as 25.9 µM, the Ki (SARS-CoV-2 NSP3 Mac1 [1]) is reported as 22.5 µM and the “HIT*” value (SARS-CoV-2 NSP3 Mac1 [2]; [9]) is reported as “Y”.
With `CS(=O)(=O)NC(=O)C1CN(c2ncnc3[nH]c4cc(F)ccc4c23)CCO1` (stereo not drawn) [LL114_0019] the IC50 (SARS-CoV-2 NSP3 Mac1 [1]; [4]) was 12 µM, the IC50 (SARS-CoV-2 NSP3 Mac1 [1]; HTRF) was 12.3 µM and the Ki (SARS-CoV-2 NSP3 Mac1 [1]) was 10.7 µM. For the same compound, the 1-BDC (SARS-CoV-2 NSP3 Mac1 [2]; [5]) was 0.1, the “1-BDC (PanDDA)” value (SARS-CoV-2 NSP3 Mac1 [2]; [6]) was 0.1 and the “PanDDA hit?” value (SARS-CoV-2 NSP3 Mac1 [2]; [7]) was “TRUE”. The “Modeled?” value (SARS-CoV-2 NSP3 Mac1 [2]; [8]) was “TRUE”, the Refined occupancy (SARS-CoV-2 NSP3 Mac1 [2]; crystal soaking of Mac1) was 20 and the “HIT*” value (SARS-CoV-2 NSP3 Mac1 [2]; [9]) was “Y”.
`O=C(O)C1(F)CN(c2ncnc3[nH]c4cc(Br)ccc4c23)CC12CCC2` (stereo not drawn) [LL123_0006] was tested, and the IC50 (SARS-CoV-2 NSP3 Mac1 [1]; HTRF) was 92.9 µM, the Ki (SARS-CoV-2 NSP3 Mac1 [1]) was 80.8 µM and the 1-BDC (SARS-CoV-2 NSP3 Mac1 [2]; [5]) was 0.08. For the same compound, the 1-BDC (SARS-CoV-2 NSP3 Mac1 [2]; PanDDA 1-BDC of the event, compound stock 100 mM, Echo dispense volume 80 nl) was 0.15, the “1-BDC (PanDDA)” value (SARS-CoV-2 NSP3 Mac1 [2]; [6]) was 0.08 and the “PanDDA hit?” value (SARS-CoV-2 NSP3 Mac1 [2]; [7]) was “TRUE”. For the same compound, the “PanDDA hit?” value (SARS-CoV-2 NSP3 Mac1 [2]; crystal soak, compound stock 100 mM, Echo dispense volume 80 nl) was “TRUE”, the “Modeled?” value (SARS-CoV-2 NSP3 Mac1 [2]; [8]) was “TRUE” and the Refined occupancy (SARS-CoV-2 NSP3 Mac1 [2]; crystal soaking of Mac1) was 16. The “HIT*” value (SARS-CoV-2 NSP3 Mac1 [2]; [9]) was “Y”.
`CCc1c[nH]c2ncc(-c3c(C(=O)O)c(C)nn3C)cc12` [REAL250003958539] was tested, and the “Spearman est (compound concentration vs apparent Tm)” value (SARS-CoV-2 NSP3 Mac1 [3]) was 0.15, the “DSF max dTma” value (SARS-CoV-2 NSP3 Mac1 [3]; maximal thermal upshift) was 0.35 ˚C and the 1-BDC (SARS-CoV-2 NSP3 Mac1 [2]; [10]) was 0.2. The 1-BDC (SARS-CoV-2 NSP3 Mac1 [2]; [6]) was 0.14, the Refined occupancy (SARS-CoV-2 NSP3 Mac1 [2]; crystal soaking of Mac1) was 28 and the “HIT*” value (SARS-CoV-2 NSP3 Mac1 [2]; [9]) was “Y”.
In the case of `CC1CC(C(=O)O)N1C(=O)c1cc(O)nc2ccc(F)cc12.O=C(O)C(F)(F)F` (stereo not drawn) [REAL300007260658], the “Spearman est (compound concentration vs apparent Tm)” value (SARS-CoV-2 NSP3 Mac1 [3]) is reported as −0.11, the “DSF max dTma” value (SARS-CoV-2 NSP3 Mac1 [3]; maximal thermal upshift) is reported as 0.37 ˚C and the 1-BDC (SARS-CoV-2 NSP3 Mac1 [2]; [10]) is reported as 0.18. The 1-BDC (SARS-CoV-2 NSP3 Mac1 [2]; [6]) was 0.11, the Refined occupancy (SARS-CoV-2 NSP3 Mac1 [2]; crystal soaking of Mac1) was 22 and the “HIT*” value (SARS-CoV-2 NSP3 Mac1 [2]; [9]) was “Y”.
In the case of `CC1C(C(=O)O)CCCN1S(=O)(=O)c1c[nH]c2ncc(Cl)cc12` (stereo not drawn) [REAL300016493575], the “Spearman est (compound concentration vs apparent Tm)” value (SARS-CoV-2 NSP3 Mac1 [3]) is reported as −0.16, the “DSF max dTma” value (SARS-CoV-2 NSP3 Mac1 [3]; maximal thermal upshift) is reported as 0.15 ˚C and the “1-BDC (PanDDA)” value (SARS-CoV-2 NSP3 Mac1 [2]; [6]) is reported as 0.09. For the same compound, the “Modeled?” value (SARS-CoV-2 NSP3 Mac1 [2]; ligand modeled from this dataset, compound concentration 100 mM) was “TRUE”, the Refined occupancy (SARS-CoV-2 NSP3 Mac1 [2]; crystal soaking of Mac1) was 18 and the “HIT*” value (SARS-CoV-2 NSP3 Mac1 [2]; [9]) was “Y”.
`O=C(Cc1ccc(-n2cccn2)cc1)OCC1CCCNC1=O` (stereo not drawn) [Z5505] was tested, and the “DSF max dTma” value (SARS-CoV-2 NSP3 Mac1 [3]; [11]) was 0.16 °C and the “HIT*” value (SARS-CoV-2 NSP3 Mac1 [2]; [12]) was “Y”.
With `c1csc(CC2CCN(c3ncnc4[nH]ccc34)C2)n1` (stereo not drawn) [Z6891] the “DSF max dTma” value (SARS-CoV-2 NSP3 Mac1 [3]; [11]) was 0.15 °C and the “HIT*” value (SARS-CoV-2 NSP3 Mac1 [2]; [12]) was “Y”.
In the case of `Cc1oc(=O)oc1CSc1ncnc2[nH]cnc12` [Z7450], the “DSF max dTma” value (SARS-CoV-2 NSP3 Mac1 [3]; [11]) is reported as 0.49 °C and the “HIT*” value (SARS-CoV-2 NSP3 Mac1 [2]; [12]) is reported as “Y”.
In the case of `OCc1cn(C2CCCN(c3ncnc4[nH]ccc34)C2)nn1` (stereo not drawn) [Z7864], the “DSF max dTma” value (SARS-CoV-2 NSP3 Mac1 [3]; [11]) is reported as 0.32 °C and the “HIT*” value (SARS-CoV-2 NSP3 Mac1 [2]; [12]) is reported as “Y”.
With `CN(C(=O)c1ccc(NC(=O)NC2CC2)cc1)C1c2cccc(O)c2CC1C(=O)O` (stereo not drawn) [Z8539_0056] the “binding to Mac1 in the HTRF assay, result in words” value (SARS-CoV-2 NSP3 Mac1 [1]) was “inactive”.
For `Cc1nc(Cn2cnc3c(N)nc(N)nc32)cs1` [Z8569], the “DSF max dTma” value (SARS-CoV-2 NSP3 Mac1 [3]; [11]) was 0.53 °C and the “HIT*” value (SARS-CoV-2 NSP3 Mac1 [2]; [12]) was “Y”.
`Nc1nc(N)c2ncn(Cc3csc(Cl)n3)c2n1` [Z8572] was tested, and the “DSF max dTma” value (SARS-CoV-2 NSP3 Mac1 [3]; [11]) was 1.1 °C and the “HIT*” value (SARS-CoV-2 NSP3 Mac1 [2]; [12]) was “Y”.
In the case of `Nc1nc(N)c2ncn(Cc3csc(C4CC4)n3)c2n1` [Z8585], the “DSF max dTma” value (SARS-CoV-2 NSP3 Mac1 [3]; [11]) is reported as 1.3 °C and the “HIT*” value (SARS-CoV-2 NSP3 Mac1 [2]; [12]) is reported as “Y”.
